Laboratory results taken from ChEMBL document CHEMBL1201862, “PubChem BioAssay data set” (2004).
Activity calls are given as the source filed them.

Columns and labels:
[1] = Luminescent dose response cell-based high throughput screening assay for inhibitors of the Janus kinase 2 mutant JAK2V617F. [Related pubchem assays: 1446 (Primary screen.), 1521 (Confirmation assay.), 1486 (Counter screen.)]; format: functional
[2] = microbe, parasite or virus in culture; format: functional; settings: Mycobacterium tuberculosis
[3] = Vero E6 cell cytotoxicity, dose response, cytotoxicity control for non-replicating M. tuberculosis project, secondary assay (AID 492998); format: functional, VeroE6; settings: Vero C1008
cells [4] = format: functional
[5] = biological target: T1, Calpain-2 catalytic subunit (Sus scrofa, UniProt P43367); test: m-calpain protease blockers, concentration series – biochemical, fluorogenic peptide substrate, dose response (AID 1420); format: functional
T1 sequence (P43367 whole entry): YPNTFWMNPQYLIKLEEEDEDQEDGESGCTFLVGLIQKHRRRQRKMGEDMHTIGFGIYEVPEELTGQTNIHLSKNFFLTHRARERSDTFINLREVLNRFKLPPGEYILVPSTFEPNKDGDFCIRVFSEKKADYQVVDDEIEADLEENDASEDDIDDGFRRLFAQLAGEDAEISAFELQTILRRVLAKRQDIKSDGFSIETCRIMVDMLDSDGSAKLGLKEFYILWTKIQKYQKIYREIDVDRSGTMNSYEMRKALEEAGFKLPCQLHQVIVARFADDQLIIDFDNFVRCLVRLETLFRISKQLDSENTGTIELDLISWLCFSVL

[6] = viability loss in Vero cells – cytotoxicity control for Vif-APOBEC3G degradation inhibitor project, dose response (AID 1117358); format: functional; settings: Vero
[7] = biological target: Solute carrier family 12 member 2/member 5 (Homo sapiens, UniProt P55011+Q9H2X9); test: KCC2 and NKCC1 inhibition by rubidium flux, cell-based, NKCC1 counter-screen (AID 1734); format: functional, HEK293
[8] = NIH3T3 cell viability loss – ATP luminescence, mouse fibroblasts, counter-screen, dose response (AID 2010); format: functional, cell-based;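 further: cells exposed to compound for about 90 hours before reading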
[9] = Trypanosoma cruzi growth suppression in host cells – NIH3T3 host cells, beta-gal luminescence, confirmation (AID 2044); format: functional, cell-based;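 further: intracellular parasites grown in NIH/3T3 mouse fibroblasts as host cells; luminescent beta-galactosidase reporter signal from transgenic T. cruzi replicating inside host cells; inhibitors lower the luminescence signal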
cells [10] = test: cells
[11] = biological target: E3 ubiquitin-protein ligase Mdm2 (Homo sapiens, UniProt Q00987); test: MDM2-luc reporter signal enhancers, multi-concentration potency testing, MDM2 ubiquitin-protein ligase inhibitor program, whole-cell format, luminescence detection, 384-well microplate (AID 1394); format: functional;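 further: MDM2 E3 inhibitors raise luminescence so EC50 is for signal enhancement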
Cytochrome P450 2C19 = Cytochrome P450 2C19 (Homo sapiens, UniProt P33261); test: Cytochrome panel assay with activity outcomes. Panel member name: p450-cyp2c19 Compounds with AC50 equal or less than 10 uM are considered active; format: functional
Sequence of Cytochrome P450 2C19 (P33261 whole entry): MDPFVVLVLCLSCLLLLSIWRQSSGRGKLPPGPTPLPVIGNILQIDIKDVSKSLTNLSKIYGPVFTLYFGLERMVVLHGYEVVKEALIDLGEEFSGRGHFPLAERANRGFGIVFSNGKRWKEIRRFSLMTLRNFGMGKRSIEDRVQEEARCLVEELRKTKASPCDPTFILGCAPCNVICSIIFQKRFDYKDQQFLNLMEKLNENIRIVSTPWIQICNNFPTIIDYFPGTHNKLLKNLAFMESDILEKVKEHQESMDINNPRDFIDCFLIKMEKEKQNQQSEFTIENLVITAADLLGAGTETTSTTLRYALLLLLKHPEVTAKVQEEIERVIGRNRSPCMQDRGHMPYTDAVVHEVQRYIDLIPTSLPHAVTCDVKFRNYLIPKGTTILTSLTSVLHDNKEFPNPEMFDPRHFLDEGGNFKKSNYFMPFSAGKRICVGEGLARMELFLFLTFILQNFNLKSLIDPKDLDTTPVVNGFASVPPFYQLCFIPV

[12] = biological target: T2, Tyrosine-protein phosphatase non-receptor type 7 (Homo sapiens, UniProt P35236); test: HePTP tyrosine phosphatase activity blockers – biochemical, absorbance, leukemia target, primary screen (AID 521); format: functional
T2 sequence (P35236 whole entry): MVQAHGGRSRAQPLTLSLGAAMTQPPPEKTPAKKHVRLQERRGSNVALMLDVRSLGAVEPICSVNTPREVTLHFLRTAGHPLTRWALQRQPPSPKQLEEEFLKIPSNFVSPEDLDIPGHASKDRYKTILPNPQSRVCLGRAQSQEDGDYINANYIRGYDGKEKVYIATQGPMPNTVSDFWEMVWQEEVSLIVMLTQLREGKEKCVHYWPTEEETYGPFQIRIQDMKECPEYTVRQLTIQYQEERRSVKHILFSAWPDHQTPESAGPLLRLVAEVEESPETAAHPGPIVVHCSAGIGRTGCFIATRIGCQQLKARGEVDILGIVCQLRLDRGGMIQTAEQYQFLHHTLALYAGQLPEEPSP

[13] = Luminescence Cell-Based Dose Confirmation HTS to Identify Activators of 5'UTR Stem-Loop Driven Alpha-Synuclein mRNA Translation in H4 Neuroglioblastoma Cells. [Related pubchem assays: 1829 (Project Summary), 1814 (Primary HTS)]; format: functional
[14] = Luminescence Cell-Based Dose Response to Identify Activators of Luciferase Translation or Activity in H4-C Neuroglioblastoma Cells. [Related pubchem assays: 1829 (Project Summary), 1814 (Primary HTS)]; format: functional
[15] = Luminescence Cell-Based Dose Response HTS to Identify Activators of Luciferase Translation or Activity in H4 […] Cells. [Related pubchem assays: 1829 (Project Summary), 1814 (Primary HTS)]; format: functional
[16] = Luminescence Cell-Based Dose Response to Identify Activators of 5'UTR Stem-Loop Driven Prion Protein mRNA Translation in H4-C Neuroglioblastoma Cells. [Related pubchem assays: 1829 (Project Summary), 1814 (Primary HTS)]; format: functional
[17] = Luminescence Cell-Based Dose Confirmation to Identify Activators of 5'UTR Stem-Loop Driven Alpha-Synuclein mRNA Translation in H4 Neuroglioblastoma Cells. [Related pubchem assays: 1829 (Project Summary), 1814 (Primary HTS)]; format: functional
Bcl-2-like protein 10 = Bcl-2-like protein 10 (Homo sapiens, UniProt Q9HD36); test: Bcl-B/TR3 peptide binding disruption – biochemical, fluorescence polarization, FITC-TR3 peptide, selectivity assay for Bfl-1 inhibitor project, primary screen (AID 748);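 further: fluorescence polarization from a fluorescein-labelled TR3 peptide binding purified Bcl-B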
Sequence of Bcl-2-like protein 10 (Q9HD36 whole entry): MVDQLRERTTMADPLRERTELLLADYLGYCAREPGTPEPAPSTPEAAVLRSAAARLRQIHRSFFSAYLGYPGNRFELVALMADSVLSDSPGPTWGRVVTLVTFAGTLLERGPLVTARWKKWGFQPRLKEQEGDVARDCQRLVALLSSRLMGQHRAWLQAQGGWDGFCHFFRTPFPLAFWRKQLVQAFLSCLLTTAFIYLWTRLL

[18] = biological target: T3, Voltage-gated N-type calcium channel alpha-1B subunit/Amyloid beta A4 precursor protein-binding family A member 1 (Homo sapiens, UniProt Q00975+Q02410); test: disruptors of Mint-PDZ/N-type channel peptide interaction – biochemical, HTRF, SAR follow-up (AID 2489); format: functional
T3 sequence (Q00975 whole entry): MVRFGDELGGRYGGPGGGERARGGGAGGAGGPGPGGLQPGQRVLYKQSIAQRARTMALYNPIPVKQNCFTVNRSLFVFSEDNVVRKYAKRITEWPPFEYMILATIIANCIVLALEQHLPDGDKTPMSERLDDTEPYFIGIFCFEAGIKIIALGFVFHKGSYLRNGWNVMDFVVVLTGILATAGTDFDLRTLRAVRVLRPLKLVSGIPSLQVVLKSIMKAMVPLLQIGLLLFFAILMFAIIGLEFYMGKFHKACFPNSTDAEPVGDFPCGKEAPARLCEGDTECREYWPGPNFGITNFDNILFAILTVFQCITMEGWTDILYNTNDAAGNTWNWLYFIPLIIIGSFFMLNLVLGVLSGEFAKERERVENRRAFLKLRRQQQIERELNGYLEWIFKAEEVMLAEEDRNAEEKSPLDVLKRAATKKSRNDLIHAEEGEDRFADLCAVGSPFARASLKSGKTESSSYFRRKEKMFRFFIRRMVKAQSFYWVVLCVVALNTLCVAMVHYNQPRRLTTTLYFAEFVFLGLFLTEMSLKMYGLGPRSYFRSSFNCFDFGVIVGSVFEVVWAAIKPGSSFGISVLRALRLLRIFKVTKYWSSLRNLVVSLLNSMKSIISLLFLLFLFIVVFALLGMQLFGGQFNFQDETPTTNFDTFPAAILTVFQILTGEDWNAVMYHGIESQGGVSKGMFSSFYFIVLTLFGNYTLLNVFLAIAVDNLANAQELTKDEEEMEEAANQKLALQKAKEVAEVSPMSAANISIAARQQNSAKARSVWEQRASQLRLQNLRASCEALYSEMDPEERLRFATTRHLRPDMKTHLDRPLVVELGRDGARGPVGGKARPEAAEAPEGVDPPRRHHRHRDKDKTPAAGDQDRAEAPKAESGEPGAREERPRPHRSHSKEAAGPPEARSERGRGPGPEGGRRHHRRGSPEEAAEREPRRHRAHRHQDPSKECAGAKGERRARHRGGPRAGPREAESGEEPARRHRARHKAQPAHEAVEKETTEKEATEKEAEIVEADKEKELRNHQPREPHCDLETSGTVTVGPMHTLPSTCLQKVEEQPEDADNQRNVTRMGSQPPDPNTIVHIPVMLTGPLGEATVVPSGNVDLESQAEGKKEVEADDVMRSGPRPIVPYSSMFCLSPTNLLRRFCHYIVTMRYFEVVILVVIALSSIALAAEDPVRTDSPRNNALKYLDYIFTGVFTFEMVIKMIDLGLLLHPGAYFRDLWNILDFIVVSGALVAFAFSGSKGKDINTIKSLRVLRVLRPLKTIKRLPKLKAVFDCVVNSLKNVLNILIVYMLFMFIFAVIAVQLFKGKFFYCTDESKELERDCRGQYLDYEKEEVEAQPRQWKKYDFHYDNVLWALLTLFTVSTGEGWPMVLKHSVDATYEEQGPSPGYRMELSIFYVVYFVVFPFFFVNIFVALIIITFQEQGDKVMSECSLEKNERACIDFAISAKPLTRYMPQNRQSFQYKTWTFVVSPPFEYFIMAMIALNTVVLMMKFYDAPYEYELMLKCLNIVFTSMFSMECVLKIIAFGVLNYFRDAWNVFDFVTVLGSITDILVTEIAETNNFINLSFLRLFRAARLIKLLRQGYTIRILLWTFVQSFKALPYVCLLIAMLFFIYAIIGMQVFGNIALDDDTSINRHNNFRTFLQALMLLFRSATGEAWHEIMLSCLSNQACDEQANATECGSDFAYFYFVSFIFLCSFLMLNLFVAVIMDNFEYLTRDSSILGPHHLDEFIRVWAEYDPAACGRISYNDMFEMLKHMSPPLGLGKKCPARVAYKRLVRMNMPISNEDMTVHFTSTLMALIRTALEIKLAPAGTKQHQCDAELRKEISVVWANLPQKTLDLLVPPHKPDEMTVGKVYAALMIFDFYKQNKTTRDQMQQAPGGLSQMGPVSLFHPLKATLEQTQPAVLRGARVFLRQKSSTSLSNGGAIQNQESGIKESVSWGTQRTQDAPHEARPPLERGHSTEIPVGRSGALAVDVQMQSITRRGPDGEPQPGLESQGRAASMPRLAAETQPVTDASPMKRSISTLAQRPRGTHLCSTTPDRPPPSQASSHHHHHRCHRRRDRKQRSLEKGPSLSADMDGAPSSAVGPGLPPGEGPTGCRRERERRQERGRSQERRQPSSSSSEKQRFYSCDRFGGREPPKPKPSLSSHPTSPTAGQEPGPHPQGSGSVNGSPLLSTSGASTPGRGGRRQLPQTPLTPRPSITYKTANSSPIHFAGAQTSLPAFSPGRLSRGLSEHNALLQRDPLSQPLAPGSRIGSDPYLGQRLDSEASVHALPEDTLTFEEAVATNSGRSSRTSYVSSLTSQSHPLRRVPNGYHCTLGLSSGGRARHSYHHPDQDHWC
T3 sequence (Q02410 whole entry): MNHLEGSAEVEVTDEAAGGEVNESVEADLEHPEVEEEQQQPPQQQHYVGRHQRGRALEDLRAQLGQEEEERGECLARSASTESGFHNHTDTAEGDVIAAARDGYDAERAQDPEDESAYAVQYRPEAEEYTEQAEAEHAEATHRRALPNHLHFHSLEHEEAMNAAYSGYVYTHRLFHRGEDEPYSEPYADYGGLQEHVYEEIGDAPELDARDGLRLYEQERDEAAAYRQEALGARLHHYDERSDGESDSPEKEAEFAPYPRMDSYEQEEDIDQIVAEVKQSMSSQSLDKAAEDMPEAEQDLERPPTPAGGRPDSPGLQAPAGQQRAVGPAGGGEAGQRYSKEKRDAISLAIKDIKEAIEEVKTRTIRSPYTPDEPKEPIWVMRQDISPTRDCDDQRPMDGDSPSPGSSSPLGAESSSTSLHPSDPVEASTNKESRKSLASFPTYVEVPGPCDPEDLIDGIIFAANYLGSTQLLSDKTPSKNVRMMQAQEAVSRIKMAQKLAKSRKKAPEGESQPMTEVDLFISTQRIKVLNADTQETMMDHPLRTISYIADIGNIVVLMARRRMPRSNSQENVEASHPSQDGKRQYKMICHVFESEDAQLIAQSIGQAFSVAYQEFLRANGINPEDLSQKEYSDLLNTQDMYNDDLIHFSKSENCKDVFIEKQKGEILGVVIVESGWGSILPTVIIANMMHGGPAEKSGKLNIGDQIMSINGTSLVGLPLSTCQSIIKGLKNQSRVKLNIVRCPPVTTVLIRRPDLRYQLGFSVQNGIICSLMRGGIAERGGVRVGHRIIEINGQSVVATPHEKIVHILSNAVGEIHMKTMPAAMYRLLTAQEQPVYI

SUMO E1/E2 = SUMO E1/E2 (Homo sapiens, UniProt P63279+Q9UBE0+Q9UBT2); test: SAR analysis of SUMOylation using HTRF in an in-Vitro dose response assay. [Related pubchem assays (depositor defined):AID2006, AID2011, AID2018, AID2069, AID2658]; format: functional
Estrogen receptor beta [19] = biological target: T4, Estrogen receptor beta (Homo sapiens, UniProt Q92731);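 further: recombinant ER-beta bound to coactivator SRC1 peptide in presence of estradiol agonist; inhibitors block coactivator peptide binding and lower the FRET signal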
T4 sequence (Q92731 whole entry): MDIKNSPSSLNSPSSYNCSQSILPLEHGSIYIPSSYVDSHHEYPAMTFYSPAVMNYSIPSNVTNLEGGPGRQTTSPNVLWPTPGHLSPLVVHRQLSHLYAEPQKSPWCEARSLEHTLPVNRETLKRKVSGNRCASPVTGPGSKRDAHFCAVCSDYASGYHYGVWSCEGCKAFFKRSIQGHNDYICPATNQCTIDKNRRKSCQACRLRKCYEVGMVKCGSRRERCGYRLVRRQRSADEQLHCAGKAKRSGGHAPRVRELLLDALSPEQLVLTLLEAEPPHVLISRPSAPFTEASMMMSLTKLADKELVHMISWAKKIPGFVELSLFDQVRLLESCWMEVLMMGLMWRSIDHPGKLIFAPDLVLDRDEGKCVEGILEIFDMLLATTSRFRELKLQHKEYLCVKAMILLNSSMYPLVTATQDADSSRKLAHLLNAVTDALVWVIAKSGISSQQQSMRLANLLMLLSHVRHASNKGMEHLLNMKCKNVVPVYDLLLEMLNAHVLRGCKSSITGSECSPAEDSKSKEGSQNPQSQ

Estrogen receptor beta [20] = biological target: T4, Estrogen receptor beta; test: blockers of SRC-3 recruitment to ERβ – biochemical, ELISA, streptavidin-HRP readout, orthogonal assay, confirmation (AID 1060)
[21] = biological target: T5, Induced myeloid leukemia cell differentiation protein Mcl-1 (Homo sapiens, UniProt Q07820); test: blockers of MCL1 binding to BIM peptide – biochemical, fluorescence polarization, BIM-BH3 peptide, 1536-well, dose response (AID 2217)
T5 sequence (Q07820 whole entry): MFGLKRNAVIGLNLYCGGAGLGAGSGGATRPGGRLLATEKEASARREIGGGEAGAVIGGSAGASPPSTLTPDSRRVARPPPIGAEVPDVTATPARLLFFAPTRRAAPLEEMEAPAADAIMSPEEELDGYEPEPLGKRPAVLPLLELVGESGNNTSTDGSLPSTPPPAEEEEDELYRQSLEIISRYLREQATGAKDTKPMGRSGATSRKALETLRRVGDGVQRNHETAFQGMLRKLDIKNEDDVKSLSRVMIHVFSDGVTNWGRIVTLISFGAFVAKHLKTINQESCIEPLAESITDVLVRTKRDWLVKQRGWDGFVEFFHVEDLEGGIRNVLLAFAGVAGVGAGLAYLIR

[22] = A Cell Based Secondary Assay To Explore Cytotoxicity of Compounds that Sensitize Mycobacterium Tuberculosis to Beta-Lactam Antibiotics.; format: functional
[23] = biological target: T5, Induced myeloid leukemia cell differentiation protein Mcl-1; format: functional
Bcl-2-like protein 1 = Bcl-2-like protein 1 (Homo sapiens, UniProt Q07817); test: blockers of BCLXL peptide binding – biochemical, fluorescence polarization, 1536-well, selectivity assay for MCL1 inhibitor project, dose response (AID 2218)
Sequence of Bcl-2-like protein 1 (Q07817 whole entry): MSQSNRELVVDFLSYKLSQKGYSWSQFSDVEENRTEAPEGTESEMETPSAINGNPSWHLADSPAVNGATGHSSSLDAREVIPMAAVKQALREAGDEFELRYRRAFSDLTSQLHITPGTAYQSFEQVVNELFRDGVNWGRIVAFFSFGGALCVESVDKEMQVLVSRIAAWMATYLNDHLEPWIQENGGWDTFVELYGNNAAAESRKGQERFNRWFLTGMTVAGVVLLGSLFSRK

Genome polyprotein = Genome polyprotein (Hepatitis C virus, UniProt Q2Q167); test: disruption of hepatitis C core self-association – biochemical, TR-FRET, dose response (AID 2159); design: species or system Hepacivirus hominis;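 further: blocks dimerization of HCV core protein measured by TR-FRET between tagged core106 pairs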
[24] = biological target: T3, Voltage-gated N-type calcium channel alpha-1B subunit/Amyloid beta A4 precursor protein-binding family A member 1; test: disruptors of Mint-PDZ/N-type channel peptide interaction – biochemical, HTRF, set 2, SAR follow-up (AID 434980); format: functional
[25] = Luminescence Cell-Based Dose Response HTS to Identify Inhibitors of 5'UTR Stem-Loop Driven Prion Protein mRNA Translation in H4 Neuroglioblastoma Cells. [Related pubchem assays: 1827 (Project Summary), 1813 (Primary HTS)]; format: functional
[26] = alpha-synuclein stem-loop luciferase translation blockers – H4 neuroglioma cells, luminescence, confirmation (AID 1988); format: functional, cell-based
[27] = luciferase reporter signal suppression in cells – H4 neuroglioma cells, luminescence, dose response (AID 1990); format: functional, cell-based
[28] = A High Throughput Confirmatory Assay used to Identify Novel Compounds that Inhibit Mycobacterium Tuberculosis in the absence of Glycerol.; format: functional
Prothrombin = Prothrombin (Homo sapiens, UniProt P00734); test: Thrombin 1536 HTS Dose Response Confirmation. [Related pubchem assays: 1046 (Thrombin 1536 HTS; hits were confirmed in this assay)]; format: functional
[29] = biological target: T6, Heat shock factor protein 1 (Mus musculus, UniProt P38532); test: decrease of HSF1-responsive luciferase luminescence – cell-based, NIH3T3, dose retest, confirmation (AID 2382); format: functional;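 further: NIH3T3 fibroblasts with HSF1-driven luciferase reporter stressed by proteasome inhibitor MG132; luminescence from HSF1-driven luciferase expression after 8 hours of MG132 stress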
T6 sequence (P38532 whole entry): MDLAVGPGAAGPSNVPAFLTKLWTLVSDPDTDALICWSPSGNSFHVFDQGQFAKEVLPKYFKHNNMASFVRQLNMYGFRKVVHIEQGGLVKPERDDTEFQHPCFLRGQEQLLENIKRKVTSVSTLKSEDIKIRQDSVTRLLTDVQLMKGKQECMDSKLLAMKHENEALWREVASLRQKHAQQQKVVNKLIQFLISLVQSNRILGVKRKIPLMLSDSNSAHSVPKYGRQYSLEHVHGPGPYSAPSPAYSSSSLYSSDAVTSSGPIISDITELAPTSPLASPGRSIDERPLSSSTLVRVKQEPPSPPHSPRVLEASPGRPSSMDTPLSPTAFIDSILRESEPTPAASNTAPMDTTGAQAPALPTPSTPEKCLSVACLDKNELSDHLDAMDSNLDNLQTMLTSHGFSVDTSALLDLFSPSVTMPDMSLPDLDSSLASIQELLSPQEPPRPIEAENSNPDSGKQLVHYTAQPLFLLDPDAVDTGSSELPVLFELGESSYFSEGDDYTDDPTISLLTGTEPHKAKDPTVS

[30] = biological target: T7, Microphthalmia-associated transcription factor (Homo sapiens, UniProt O75030); test: reducers of TRPM1 reporter luminescence, concentration series – cell-based, SK-MEL-5, cherry-picked, set 3, MITF inhibitor project, dose response (AID 493073); format: functional;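 further: SK-MEL-5 melanoma cells with luciferase driven by the MITF target TRPM1 promoter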
T7 sequence (O75030 whole entry): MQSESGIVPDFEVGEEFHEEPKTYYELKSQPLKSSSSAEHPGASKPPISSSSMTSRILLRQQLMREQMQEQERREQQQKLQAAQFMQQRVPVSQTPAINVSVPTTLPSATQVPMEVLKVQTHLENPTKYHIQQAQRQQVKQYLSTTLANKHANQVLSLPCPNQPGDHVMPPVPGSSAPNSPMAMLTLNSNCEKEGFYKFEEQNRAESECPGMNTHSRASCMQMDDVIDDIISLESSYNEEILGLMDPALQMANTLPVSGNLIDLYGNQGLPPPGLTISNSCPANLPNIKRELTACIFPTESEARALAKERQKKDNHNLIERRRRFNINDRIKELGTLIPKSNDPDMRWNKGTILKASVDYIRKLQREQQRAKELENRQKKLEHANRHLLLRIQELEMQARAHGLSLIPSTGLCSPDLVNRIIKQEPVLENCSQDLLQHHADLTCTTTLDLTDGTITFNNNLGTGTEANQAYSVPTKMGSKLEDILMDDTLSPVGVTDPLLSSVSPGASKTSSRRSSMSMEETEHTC

[31] = biological target: Heat shock protein HSP 90-alpha (Homo sapiens, UniProt P07900); test: Luminescence-based dose response biochemical high throughput screening assay for inhibitors of the Heat Shock Protein 90 (HSP90). [Related pubchem assays: 1831 (Summary AID.), 1846 (Confirmation screen.), 1789 (Primary screen.)]

O=C(O)c1[nH]c(=O)[nH]c(=O)c1F
IC50 [1]: 4.12 µM (active)
CC50 [2]: > 40 µM (active)
CC50 [3]: > 20 µM (active)
IC50 (cells [4]): 5.96 µM (active)

Cc1ccc(Cl)cc1N1CCN(C(=O)Cc2cn(C)c3ccccc23)CC1
IC50 [5]: 6.39 µM (not active)
CC50 [6]: > 40 µM (active)

CCCn1c(N)c(C(=O)CSc2nnc(Cc3ccccc3)o2)c(=O)n(C)c1=O
IC50 [7]: 1.6 µM (active)

Cc1c(O)ccc2c(CN3CCN(Cc4ccccc4)CC3)cc(=O)oc12
EC50 [8]: > 60 µM (not active)
EC50 [9]: < 0.1 µM (active)
EC50 (cells [10]): 0.024 µM (active)

CCN1CCN(C(=O)CCc2nc3ccccc3c(=O)[nH]2)CC1
EC50 [11]: 12.5 µM (not active)
AC50 (Cytochrome P450 2C19): inconclusive

O=C(Nc1cc(C(F)(F)F)ccc1Cl)C1CCN(c2nnc(-n3cccc3)s2)CC1
IC50 [12]: > 100 µM (not active)

O=C(NC1CCCCCC1)c1ccc(CN2CCOCC2)cc1
EC50 [13]: < 0.1 µM (active)
EC50 [14]: 0.67 µM (active)
EC50 [15]: 17.5 µM (active)
EC50 [16]: 0.889 µM (active)
EC50 [17]: 0.406 µM (active)

O=C(OCC(=O)N1CCN(C(=O)c2ccco2)CC1)c1cc(-c2ccco2)nc2ccccc12
IC50 (Bcl-2-like protein 10): 12 µM (active)
IC50 [18]: 5.92 µM (active)
IC50 (SUMO E1/E2): 1.93 µM (active)
IC50 (Estrogen receptor beta [19]): < 1.56 µM (active)
IC50 (Estrogen receptor beta [20]): > 50 µM (not active)
IC50 [21]: 6.8 µM (active)
CC50 [22]: > 40 µM (active)
IC50 [23]: 3.96 µM (active)
IC50 (Bcl-2-like protein 1): > 109 µM (not active)
IC50 (Genome polyprotein): > 49.8 µM (not active)
IC50 [24]: 2.86 µM (active)

CC(C)CNc1nnnc2c1sc1nc(N3CCOCC3)c3c(c12)CC(C)(C)SC3
EC50 [25]: 35.1 µM (active)
CC50 [2]: > 40 µM (active)
EC50 [26]: 14.3 µM (active)
EC50 [27]: 19.2 µM (active)
IC50 [28]: > 100 µM (active)

Cc1ccc2nc(NC(=O)CSCC(=O)OCC(=O)c3ccccc3)sc2c1
IC50 (Prothrombin): 0.0897 µM (active)
EC50 [29]: 1.05 µM (active)
AC50 [30]: 5.78 µM (active)
IC50 [31]: 5.17 µM (active)
